{"source": "ChEMBL document CHEMBL1201862", "about": "“PubChem BioAssay data set” (2004)", "key": {"SUMO E1/E2": {"target": "SUMO E1/E2 (Homo sapiens, UniProt P63279+Q9UBE0+Q9UBT2)", "experiment": "SAR analysis of SUMOylation using HTRF in an in-Vitro dose response assay. [Related pubchem assays (depositor defined):AID2006, AID2011, AID2018, AID2069, AID2658]", "format": "functional"}, "[1]": {"target": "T1, Voltage-gated N-type calcium channel alpha-1B subunit/Amyloid beta A4 precursor protein-binding family A member 1 (Homo sapiens, UniProt Q00975+Q02410)", "T1 sequence (Q00975 whole entry)": "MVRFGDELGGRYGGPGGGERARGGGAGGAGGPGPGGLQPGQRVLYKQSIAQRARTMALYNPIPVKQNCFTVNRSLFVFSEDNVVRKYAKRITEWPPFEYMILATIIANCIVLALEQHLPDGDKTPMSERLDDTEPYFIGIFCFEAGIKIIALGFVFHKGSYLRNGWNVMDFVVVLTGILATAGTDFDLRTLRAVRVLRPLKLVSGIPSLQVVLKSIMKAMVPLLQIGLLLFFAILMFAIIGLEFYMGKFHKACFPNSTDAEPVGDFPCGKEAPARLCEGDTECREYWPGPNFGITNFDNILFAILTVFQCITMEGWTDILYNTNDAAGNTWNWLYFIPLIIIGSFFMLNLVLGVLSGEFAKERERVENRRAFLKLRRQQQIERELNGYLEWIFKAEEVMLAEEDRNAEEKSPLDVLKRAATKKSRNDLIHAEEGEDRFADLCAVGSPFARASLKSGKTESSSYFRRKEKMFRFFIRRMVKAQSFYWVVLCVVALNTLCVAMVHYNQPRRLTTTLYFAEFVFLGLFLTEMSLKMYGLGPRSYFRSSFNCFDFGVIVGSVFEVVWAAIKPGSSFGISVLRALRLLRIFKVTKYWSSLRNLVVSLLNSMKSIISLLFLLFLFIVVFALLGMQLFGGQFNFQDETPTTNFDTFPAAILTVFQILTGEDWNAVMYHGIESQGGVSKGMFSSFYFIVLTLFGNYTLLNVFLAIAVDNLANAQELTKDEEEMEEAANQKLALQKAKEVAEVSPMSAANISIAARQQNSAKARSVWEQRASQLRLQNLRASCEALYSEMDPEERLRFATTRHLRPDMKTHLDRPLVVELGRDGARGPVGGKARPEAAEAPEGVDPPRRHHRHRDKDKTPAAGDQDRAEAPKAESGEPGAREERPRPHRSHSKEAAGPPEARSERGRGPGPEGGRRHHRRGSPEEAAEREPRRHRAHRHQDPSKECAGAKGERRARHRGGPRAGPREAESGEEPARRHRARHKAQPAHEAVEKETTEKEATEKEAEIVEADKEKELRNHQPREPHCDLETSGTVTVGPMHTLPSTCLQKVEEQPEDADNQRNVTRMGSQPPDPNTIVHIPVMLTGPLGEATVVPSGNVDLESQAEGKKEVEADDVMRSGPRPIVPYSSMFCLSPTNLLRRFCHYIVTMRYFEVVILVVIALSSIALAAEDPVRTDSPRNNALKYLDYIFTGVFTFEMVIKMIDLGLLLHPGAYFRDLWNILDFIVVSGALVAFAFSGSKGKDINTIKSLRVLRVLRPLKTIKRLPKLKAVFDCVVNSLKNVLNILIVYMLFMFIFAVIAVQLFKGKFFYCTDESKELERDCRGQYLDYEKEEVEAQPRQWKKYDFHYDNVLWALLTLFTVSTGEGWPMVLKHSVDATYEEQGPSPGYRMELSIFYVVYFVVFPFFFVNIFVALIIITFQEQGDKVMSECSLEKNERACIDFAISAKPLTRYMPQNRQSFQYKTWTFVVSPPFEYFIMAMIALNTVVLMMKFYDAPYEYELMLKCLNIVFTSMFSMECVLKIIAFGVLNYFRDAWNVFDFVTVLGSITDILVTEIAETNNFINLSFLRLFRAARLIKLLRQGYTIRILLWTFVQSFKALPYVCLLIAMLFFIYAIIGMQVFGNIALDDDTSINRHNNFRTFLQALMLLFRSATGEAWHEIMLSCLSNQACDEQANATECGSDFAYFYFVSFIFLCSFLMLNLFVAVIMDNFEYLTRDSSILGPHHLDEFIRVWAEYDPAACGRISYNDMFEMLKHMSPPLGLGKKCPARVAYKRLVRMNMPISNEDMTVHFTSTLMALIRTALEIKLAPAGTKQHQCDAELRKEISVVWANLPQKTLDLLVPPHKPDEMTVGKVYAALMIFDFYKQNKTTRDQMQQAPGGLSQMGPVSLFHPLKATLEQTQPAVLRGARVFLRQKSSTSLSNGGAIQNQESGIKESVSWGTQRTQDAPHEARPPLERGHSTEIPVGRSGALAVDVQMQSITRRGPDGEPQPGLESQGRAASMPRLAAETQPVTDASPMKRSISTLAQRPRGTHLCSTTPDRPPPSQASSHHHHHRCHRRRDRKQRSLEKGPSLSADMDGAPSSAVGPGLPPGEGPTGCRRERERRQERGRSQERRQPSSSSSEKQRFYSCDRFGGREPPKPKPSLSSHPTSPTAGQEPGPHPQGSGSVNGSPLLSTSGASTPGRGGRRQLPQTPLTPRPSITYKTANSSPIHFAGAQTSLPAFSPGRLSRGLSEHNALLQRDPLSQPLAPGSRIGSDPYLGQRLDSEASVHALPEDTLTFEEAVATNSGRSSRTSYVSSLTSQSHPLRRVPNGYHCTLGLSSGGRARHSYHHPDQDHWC", "T1 sequence (Q02410 whole entry)": "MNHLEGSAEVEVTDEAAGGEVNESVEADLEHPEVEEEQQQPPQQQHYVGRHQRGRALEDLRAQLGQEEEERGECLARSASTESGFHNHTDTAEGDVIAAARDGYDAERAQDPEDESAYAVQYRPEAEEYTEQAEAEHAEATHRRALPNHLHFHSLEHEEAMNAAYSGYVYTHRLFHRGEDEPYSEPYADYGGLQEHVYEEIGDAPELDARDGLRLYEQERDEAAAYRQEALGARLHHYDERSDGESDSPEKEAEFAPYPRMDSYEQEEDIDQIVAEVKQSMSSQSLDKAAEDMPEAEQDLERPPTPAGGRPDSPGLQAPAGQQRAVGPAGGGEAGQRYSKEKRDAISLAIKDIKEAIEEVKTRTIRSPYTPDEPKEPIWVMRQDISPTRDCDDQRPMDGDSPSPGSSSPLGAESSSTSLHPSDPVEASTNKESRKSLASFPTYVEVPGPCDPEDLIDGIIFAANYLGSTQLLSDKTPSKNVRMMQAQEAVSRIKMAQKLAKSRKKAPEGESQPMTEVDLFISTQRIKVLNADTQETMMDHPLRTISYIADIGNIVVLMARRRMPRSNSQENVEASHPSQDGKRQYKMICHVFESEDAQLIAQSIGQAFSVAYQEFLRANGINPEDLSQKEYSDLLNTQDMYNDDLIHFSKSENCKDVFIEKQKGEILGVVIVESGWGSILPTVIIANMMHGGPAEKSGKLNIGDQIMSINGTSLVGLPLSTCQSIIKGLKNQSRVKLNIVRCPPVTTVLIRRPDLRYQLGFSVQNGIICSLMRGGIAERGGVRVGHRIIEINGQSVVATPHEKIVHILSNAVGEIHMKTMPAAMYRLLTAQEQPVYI", "experiment": "disruptors of Mint-PDZ/N-type channel peptide interaction – biochemical, HTRF, set 2, SAR follow-up (AID 434980)", "format": "functional"}, "[2]": {"target": "T1, Voltage-gated N-type calcium channel alpha-1B subunit/Amyloid beta A4 precursor protein-binding family A member 1", "experiment": "disruptors of Mint-PDZ/N-type channel peptide interaction – biochemical, HTRF, SAR follow-up (AID 2489)", "format": "functional"}, "Neutrophil collagenase": {"target": "Neutrophil collagenase (Homo sapiens, UniProt P22894)", "experiment": "potency against MMP13, MMP2, MMP3, MMP14 – biochemical, probe development, late stage results, selectivity assay for MMP13 inhibitor project, late-stage follow-up, panel member MMP-8 [IC50 Assay] (AID 2067)"}, "[3]": {"target": "T2, Heat shock factor protein 1 (Mus musculus, UniProt P38532)", "T2 sequence (P38532 whole entry)": "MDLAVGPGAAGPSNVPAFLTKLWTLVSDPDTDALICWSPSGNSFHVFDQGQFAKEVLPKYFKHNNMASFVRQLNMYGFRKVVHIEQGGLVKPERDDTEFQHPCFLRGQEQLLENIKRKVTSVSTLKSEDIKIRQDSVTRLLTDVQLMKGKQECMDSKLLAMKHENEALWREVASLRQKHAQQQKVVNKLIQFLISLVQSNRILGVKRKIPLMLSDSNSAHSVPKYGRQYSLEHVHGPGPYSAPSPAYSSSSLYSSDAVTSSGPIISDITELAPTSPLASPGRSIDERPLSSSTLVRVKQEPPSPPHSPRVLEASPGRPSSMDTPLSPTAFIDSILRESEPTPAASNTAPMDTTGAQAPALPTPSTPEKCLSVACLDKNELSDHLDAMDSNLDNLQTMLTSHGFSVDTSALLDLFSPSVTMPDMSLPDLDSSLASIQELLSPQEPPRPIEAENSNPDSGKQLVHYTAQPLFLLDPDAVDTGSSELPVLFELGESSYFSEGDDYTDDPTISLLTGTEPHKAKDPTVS", "experiment": "decrease of HSF1-responsive luciferase luminescence – cell-based, NIH3T3, dose retest, confirmation (AID 2382);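 also: NIH3T3 fibroblasts with HSF1-driven luciferase reporter stressed by proteasome inhibitor MG132; luminescence from HSF1-driven luciferase expression after 8 hours of MG132 stress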", "format": "functional"}, "Vibrio harveyi [4]": {"system": "Vibrio harveyi", "experiment": "Quorum Sensing, LuxS, LuxPQ Measured in Microorganism System Using Plate Reader - 2035-01_Inhibitor_DoseNoFile_DryPowder_Activity. [Related pubchem assays (depositor defined):AID2106]", "format": "functional, organism-based"}, "Vibrio harveyi [5]": {"system": "Vibrio harveyi", "experiment": "LuxS/LuxPQ-dependent luminescence inhibition, V. harveyi – dry powder, set 2, dose response (AID 493072)", "format": "functional, organism-based"}, "[6]": {"experiment": "decrease of insulin promoter-GFP reporter – imaging, high-content screening, mouse beta cells (AID 1628)", "format": "functional", "details": "MIN6"}, "[7]": {"target": "Guanyl-specific ribonuclease T1 (Aspergillus oryzae (strain ATCC 42149 / RIB 40), UniProt P00651)", "sequence (P00651 whole entry)": "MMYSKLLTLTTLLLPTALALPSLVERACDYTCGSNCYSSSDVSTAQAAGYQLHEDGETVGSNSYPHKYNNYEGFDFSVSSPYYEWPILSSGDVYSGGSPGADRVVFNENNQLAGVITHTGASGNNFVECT", "experiment": "inhibition of ribonuclease T1 activity – biochemical, fluorescence polarization, 1536-well, counter-screen for TPT1 inhibitor project, dose response (AID 2167)"}, "[8]": {"experiment": "MIN6 cell viability loss – mouse insulinoma, cytotoxicity control, dose response (AID 2122);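 also: confirmatory high-throughput counterscreen run to flag cytotoxic compounds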", "format": "functional"}, "[9]": {"target": "Likely tRNA 2'-phosphotransferase (Candida albicans (strain SC5314 / ATCC MYA-2876) (Yeast), UniProt Q5A7N4)", "sequence (Q5A7N4 whole entry)": "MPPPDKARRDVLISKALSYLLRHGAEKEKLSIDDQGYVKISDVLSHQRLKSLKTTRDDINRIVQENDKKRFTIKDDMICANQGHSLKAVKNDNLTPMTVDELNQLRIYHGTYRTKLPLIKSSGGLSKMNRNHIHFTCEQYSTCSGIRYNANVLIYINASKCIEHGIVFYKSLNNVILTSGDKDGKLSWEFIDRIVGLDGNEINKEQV", "experiment": "inhibition of Candida TPT1 enzyme activity – biochemical, fluorescence polarization, dose response (AID 2160)"}, "[10]": {"experiment": "HEK-293T viability loss after treatment – luminescence, T-cell screen hits, cytotoxicity control for TCR NF-kB inhibitor project, dose response (AID 489026);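 also: cells exposed to compound about 14 hours before the viability readout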", "format": "functional, cell-based"}, "Nonstructural protein 1": {"target": "Nonstructural protein 1 (Influenza A virus, UniProt Q194T2)", "format": "functional, Influenza A virus (A/California/07/2009(H1N1))"}, "[11]": {"target": "T3, Microphthalmia-associated transcription factor (Homo sapiens, UniProt O75030)", "T3 sequence (O75030 whole entry)": "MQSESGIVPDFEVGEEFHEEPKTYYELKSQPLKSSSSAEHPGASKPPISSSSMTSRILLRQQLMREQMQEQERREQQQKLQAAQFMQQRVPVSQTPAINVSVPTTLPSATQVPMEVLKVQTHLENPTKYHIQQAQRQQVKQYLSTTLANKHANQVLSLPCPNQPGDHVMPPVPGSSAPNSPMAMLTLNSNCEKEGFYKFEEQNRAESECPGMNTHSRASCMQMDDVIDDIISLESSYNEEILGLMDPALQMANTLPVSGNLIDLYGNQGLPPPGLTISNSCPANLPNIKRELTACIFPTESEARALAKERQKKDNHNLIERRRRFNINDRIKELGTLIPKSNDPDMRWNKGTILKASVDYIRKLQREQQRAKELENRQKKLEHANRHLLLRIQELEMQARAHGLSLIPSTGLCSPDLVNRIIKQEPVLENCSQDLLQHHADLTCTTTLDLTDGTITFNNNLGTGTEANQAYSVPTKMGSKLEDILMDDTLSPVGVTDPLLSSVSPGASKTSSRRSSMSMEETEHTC", "experiment": "reducers of TRPM1 reporter luminescence, concentration series – cell-based, SK-MEL-5, cherry-picked, set 3, MITF inhibitor project, dose response (AID 493073)", "format": "functional"}, "INS1": {"system": "INS1", "experiment": "INS-1E survival protection against cytokine death – cell-based, luminescence, retest, dose response (AID 449756);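 also: cell death triggered by IL-1 beta plus TNF-alpha plus IFN-gamma mixture; protective hits raise ATP signal compared with cytokine alone wells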", "format": "functional", "details": "Rattus norvegicus"}, "SUMO-activating enzyme [12]": {"target": "T4, SUMO-activating enzyme (Homo sapiens, UniProt Q9UBT2)", "T4 sequence (Q9UBE0 whole entry)": "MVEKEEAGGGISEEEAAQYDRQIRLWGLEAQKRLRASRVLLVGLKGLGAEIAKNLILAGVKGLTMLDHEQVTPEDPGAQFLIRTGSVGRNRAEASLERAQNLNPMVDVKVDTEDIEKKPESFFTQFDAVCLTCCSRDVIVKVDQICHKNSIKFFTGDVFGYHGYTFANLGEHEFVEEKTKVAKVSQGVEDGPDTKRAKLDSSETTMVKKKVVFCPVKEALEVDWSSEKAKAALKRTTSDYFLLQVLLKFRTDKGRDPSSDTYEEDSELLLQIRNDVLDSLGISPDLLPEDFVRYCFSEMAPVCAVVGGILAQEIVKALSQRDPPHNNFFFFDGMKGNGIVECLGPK", "T4 sequence (Q9UBT2 whole entry)": "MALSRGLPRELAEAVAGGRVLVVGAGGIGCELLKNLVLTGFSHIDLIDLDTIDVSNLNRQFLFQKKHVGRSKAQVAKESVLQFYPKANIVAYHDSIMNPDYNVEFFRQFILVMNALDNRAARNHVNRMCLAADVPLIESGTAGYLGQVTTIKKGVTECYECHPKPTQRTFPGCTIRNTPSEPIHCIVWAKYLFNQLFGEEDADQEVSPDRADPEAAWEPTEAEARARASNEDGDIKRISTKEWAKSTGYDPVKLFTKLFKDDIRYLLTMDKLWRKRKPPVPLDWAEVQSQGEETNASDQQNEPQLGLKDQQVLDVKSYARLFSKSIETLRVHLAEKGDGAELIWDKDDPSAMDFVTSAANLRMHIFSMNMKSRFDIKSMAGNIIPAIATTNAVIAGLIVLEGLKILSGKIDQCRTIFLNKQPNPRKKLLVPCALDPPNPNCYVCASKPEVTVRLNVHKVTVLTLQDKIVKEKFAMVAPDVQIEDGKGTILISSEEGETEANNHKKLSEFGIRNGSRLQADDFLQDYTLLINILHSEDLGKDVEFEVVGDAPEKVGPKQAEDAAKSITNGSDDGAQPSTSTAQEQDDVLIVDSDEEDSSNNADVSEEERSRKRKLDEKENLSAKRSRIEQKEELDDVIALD", "experiment": "blockers of UBC9-mediated SUMO conjugation – biochemical, AlphaScreen, SUMOylation inhibitor project, confirmation (AID 2018)", "format": "functional"}, "SUMO-activating enzyme [13]": {"target": "T4, SUMO-activating enzyme", "experiment": "blockers of SAE1/SAE2–UBC9 SUMO transfer – biochemical, HTRF, uHTS, primary screen (AID 2006)", "format": "protein-complex assay"}, "[14]": {"experiment": "Luminescence Cell-Based Dose Retest to Confirm Inhibitors of Cancer Stem Cells. [Related pubchem assays (depositor defined):AID2717, AID2721]", "format": "functional", "details": "Homo sapiens"}, "[15]": {"target": "C-C chemokine receptor type 6 (Homo sapiens, UniProt P51684)", "experiment": "antagonism of CCR6 beta-arrestin recruitment – cell-based, luminescent beta-arrestin readout, dose response (AID 504728)", "format": "functional"}, "Beta-galactosidase": {"target": "Beta-galactosidase (Escherichia coli, UniProt Q8VNN2)", "experiment": "detection-enzyme interference by beta-gal modulators – biochemical, E. coli enzyme, set 3, artefact control for CCR6 antagonist project, dose response (AID 504712)", "format": "functional"}, "[16]": {"target": "Neurotensin receptor type 1 (Homo sapiens, UniProt P30989)", "sequence (P30989 whole entry)": "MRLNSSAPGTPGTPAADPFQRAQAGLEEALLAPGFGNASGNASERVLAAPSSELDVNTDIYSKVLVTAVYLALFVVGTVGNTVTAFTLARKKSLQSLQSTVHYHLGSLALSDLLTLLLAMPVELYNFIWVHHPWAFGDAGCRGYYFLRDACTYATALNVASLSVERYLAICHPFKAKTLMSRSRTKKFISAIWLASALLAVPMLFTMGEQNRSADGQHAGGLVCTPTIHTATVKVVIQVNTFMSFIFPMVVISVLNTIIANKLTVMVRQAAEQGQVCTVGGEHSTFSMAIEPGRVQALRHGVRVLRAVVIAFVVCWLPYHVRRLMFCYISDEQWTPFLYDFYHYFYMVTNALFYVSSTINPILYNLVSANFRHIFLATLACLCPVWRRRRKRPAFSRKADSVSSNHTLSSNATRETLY", "format": "functional"}, "[17]": {"target": "T5, Type-1 angiotensin II receptor (Homo sapiens, UniProt P30556)", "T5 sequence (P30556 whole entry)": "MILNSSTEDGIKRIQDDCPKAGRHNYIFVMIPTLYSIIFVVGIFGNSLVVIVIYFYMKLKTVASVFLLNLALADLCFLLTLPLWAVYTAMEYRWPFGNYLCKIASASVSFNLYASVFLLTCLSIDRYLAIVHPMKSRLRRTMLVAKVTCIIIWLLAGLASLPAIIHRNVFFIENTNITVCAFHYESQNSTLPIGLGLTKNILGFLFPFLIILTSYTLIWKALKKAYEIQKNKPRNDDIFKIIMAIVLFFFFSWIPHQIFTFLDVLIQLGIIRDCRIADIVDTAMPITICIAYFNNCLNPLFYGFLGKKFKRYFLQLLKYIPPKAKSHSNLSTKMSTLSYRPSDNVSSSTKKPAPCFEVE", "experiment": "agonist activity at AGTR1 – cell-based, uHTS hits, selectivity assay for APJ receptor agonist project, dose response (AID 488865);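 also: beta-arrestin recruitment to AT1 measured by enzyme fragment complementation luminescence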", "format": "functional"}, "[18]": {"experiment": "reduction of Shn3 3'UTR-driven luciferase in osteoblasts – cell-based, Clone20 osteoblasts, firefly luciferase, cherry-picked, dose response (AID 624132)", "format": "functional"}, "[19]": {"experiment": "non-specific 3'UTR reporter inhibition in Clone20-Shn3RL – cell-based, Renilla luciferase, cherry-picked, counter-screen for Shn3 inhibitor project, dose response (AID 624133)", "format": "functional"}, "[20]": {"experiment": "IC50 of Artemis nuclease activity blockers – biochemical, fluorescence intensity, dose response (AID 720701);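 also: Artemis endonuclease enzyme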", "format": "functional"}, "[21]": {"target": "G-protein coupled receptor 35 (Homo sapiens, UniProt Q9HC97)", "experiment": "inhibition of zaprinast-stimulated GPR35 beta-arrestin translocation – imaging, U2OS, beta-arrestin-GFP, zaprinast agonist, primary screen (AID 2058);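 also: antagonist potency meaning inhibition of agonist-induced arrestin redistribution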", "format": "functional"}, "[22]": {"target": "G-protein coupled receptor 55 (Homo sapiens, UniProt Q9Y2T6)", "experiment": "inhibition of LPI-stimulated GPR55 beta-arrestin translocation – imaging, U2OS, beta-arrestin-GFP, LPI agonist, primary screen (AID 2013);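 also: antagonist potency measured as reduced agonist-driven arrestin aggregation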", "format": "functional"}, "Cytochrome P450 2C9": {"target": "Cytochrome P450 2C9 (Homo sapiens, UniProt P11712)"}}, "note": "Calls of active or inactive are those of the source.", "data": [{"molecule": "COc1ccc(CNC(=O)COC(=O)c2cc(-c3ccc(C)o3)nc3ccccc23)cc1", "values": [{"measurement": "IC50", "setting": "SUMO E1/E2", "result": "4 µM (active)"}, {"measurement": "IC50", "setting": "[1]", "result": "> 56.8 µM (inactive)"}, {"measurement": "IC50", "setting": "[2]", "result": "> 56.8 µM (inactive)"}]}, {"molecule": "O=c1[nH]c(SCCc2ccccc2)nc2c1CCC2", "values": [{"measurement": "IC50", "setting": "Neutrophil collagenase", "result": "> 39.8 µM (inactive)"}]}, {"molecule": "COc1cc(NC(=O)CN2C(=O)NC(c3ccccc3)(c3ccccc3)C2=O)cc(OC)c1", "values": [{"measurement": "EC50", "setting": "[3]", "result": "> 195 µM (not active)"}, {"measurement": "AC50", "setting": "Vibrio harveyi [4]", "result": "0.594 µM (active)"}, {"measurement": "AC50", "setting": "Vibrio harveyi [5]", "result": "0.77 µM (active)"}, {"measurement": "AC50", "setting": "Vibrio harveyi [5]; Vibrio harveyi", "result": "0.671 µM (active)"}]}, {"molecule": "Cn1cc(C(=O)N/N=C/c2c(O)ccc3ccccc23)ccc1=O", "values": [{"measurement": "IC50", "setting": "[6]", "result": "4.33 µM (active)"}, {"measurement": "IC50", "setting": "[7]", "result": "> 55.7 µM (not active)"}, {"measurement": "IC50", "setting": "[8]", "result": "4.04 µM (active)"}, {"measurement": "IC50", "setting": "[9]", "result": "> 55.7 µM (not active)"}, {"measurement": "IC50", "setting": "[10]", "result": "> 80 µM (inactive)"}, {"measurement": "IC50", "setting": "Nonstructural protein 1", "result": "> 100 µM (active)"}, {"measurement": "AC50", "setting": "[11]", "result": "2.55 µM (active)"}, {"measurement": "AC50", "setting": "INS1", "result": "0.774 µM (active)"}]}, {"molecule": "CC1=NOC(=O)/C1=C\\c1ccc(-c2cc(Cl)ccc2Cl)o1", "values": [{"measurement": "IC50", "setting": "SUMO-activating enzyme [12]", "result": "4.89 µM (active)"}, {"measurement": "IC50", "setting": "SUMO-activating enzyme [13]", "result": "11.5 µM (active)"}, {"measurement": "AC50", "setting": "[14]", "result": "1.04 µM (active)"}, {"measurement": "IC50", "setting": "[15]", "result": "> 66.6 µM (inactive)"}, {"measurement": "IC50", "setting": "Beta-galactosidase", "result": "> 66.6 µM (inactive)"}, {"measurement": "EC50", "setting": "[16]", "result": "7.5 µM (active)"}, {"measurement": "EC50", "setting": "[17]", "result": "> 100 µM (inactive)"}, {"measurement": "AC50", "setting": "[18]", "result": "5.69 µM (active)"}, {"measurement": "AC50", "setting": "[19]", "result": "9.55 µM (active)"}, {"measurement": "IC50", "setting": "[20]", "result": "> 20 µM (inactive)"}]}, {"molecule": "CC(=O)Oc1ccc(C(c2ccc(OC(C)=O)cc2)c2ccccn2)cc1", "note": "[BISACODYL]", "values": [{"measurement": "IC50", "setting": "[21]", "result": "> 32 µM (inactive)"}, {"measurement": "IC50", "setting": "[22]", "result": "0.908 µM (active)"}, {"measurement": "AC50", "setting": "Cytochrome P450 2C9", "result": "15.8 µM (inconclusive)"}]}]}
